These results are taken from US8703776B2 (Cymabay Therapeutics, Inc., priority 2011, dated 2014).

For one test, the target named is T1, human GPR131 (Homo sapiens, UniProt Q8TDU6).
T1 construct: expressed in transfected cells
T1 sequence (Q8TDU6 1-330): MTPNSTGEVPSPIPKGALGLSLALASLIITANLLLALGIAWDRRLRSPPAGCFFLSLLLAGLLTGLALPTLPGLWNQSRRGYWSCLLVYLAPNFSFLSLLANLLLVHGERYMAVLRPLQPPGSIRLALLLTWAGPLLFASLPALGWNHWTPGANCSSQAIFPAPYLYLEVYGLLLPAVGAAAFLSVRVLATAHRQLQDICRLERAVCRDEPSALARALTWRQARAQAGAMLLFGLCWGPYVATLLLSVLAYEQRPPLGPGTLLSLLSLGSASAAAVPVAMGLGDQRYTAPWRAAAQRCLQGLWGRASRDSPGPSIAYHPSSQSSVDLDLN
Kind of test: Stimulation of cAMP in stable cell line expressing human GPR131 (FRET cAMP kit). The test is classed as cell-based. The following applies: 0.5 h; 1.1 μM compound, relative to maximal stimulatory activity of lithocholic acid at 3.3 μM; 30 minutes at 37° C.; read-out: Percent Activity @ 1.1 μM (of 3.3 uM LCA) (%). How it is done:
This assay was developed using a stable cell line expressing human GPR131.
To measure cAMP activity in response to GPR131 agonists, GPR131 cells suspended in DMEM/F12 medium with 1 mM IBMX were seeded in 384 well plates at 5000 cells per well. After incubating with test compounds at 37° C. for 30 minutes cAMP was measured using a fluorescene resonance energy transfer cAMP kit from Cis Bio (Bedford, Mass.) according to the manufacturer's instructions. Briefly, cells were lysed, and cAMP levels determined by competitive immunoassay using D2 labeled cAMP, and europium cryptate tagged anti cAMP antibody. Decreases in the FRET signal (fluorescence ratio (665 nm/620 […]) correspond to increases in intracellular cAMP levels.
Activities of test compounds in Table 1 below are expressed as % activity at 1.1 μM compound compared to the maximal stimulatory activity of lithocholic acid (LCA) (determined at 3.3 μM LCA)
On to `Cc1cnccc1CN(C)C(=O)c1cnc(SCc2c(F)ccc(F)c2F)n1-c1ccc(F)cc1` [Compound 502, 1-(4-Fluorophenyl)-N-methyl-N-((3-methylpyridin-4-yl)methyl)-2-((2,3,6-trifluorobenzyl)thio)-1H-imidazole-5-carboxamide], for which the activation at 1.1 µM is 100%. For `COc1ccc(Cl)c(CSc2ncc(C(=O)N(C)Cc3ccncc3)n2-c2ccc(F)cc2)c1F` [Compound 612, 2-((6-Chloro-2-fluoro-3-methoxybenzyl)thio)-1-(4-fluorophenyl)-N-methyl-N-(pyridin-4-ylmethyl)-1H-imidazole-5-carboxamide], the activation at 1.1 µM was found to be 100%. With `CN(Cc1ccncc1)C(=O)c1cnc(SCc2ccccc2F)n1-c1ccc(F)cc1` [Compound 613, 2-((2-Fluorobenzyl)thio)-1-(4-fluorophenyl)-N-methyl-N-(pyridin-4-ylmethyl)-1H-imidazole-5-carboxamide], the activation at 1.1 µM amounted to 100%. For the compound `CN(Cc1ccncc1)C(=O)c1cnc(SCc2cc(F)ccc2Cl)n1-c1ccc(F)cc1` [Compound 615, 2-((2-Chloro-5-fluorobenzyl)thio)-1-(4-fluorophenyl)-N-methyl-N-(pyridin-4-ylmethyl)-1H-imidazole-5-carboxamide], the activation at 1.1 µM came to 98%. Regarding `CN(Cc1ccncc1)C(=O)c1cnc(SCc2cc(Cl)ccc2F)n1-c1ccc(F)cc1` [Compound 616, 2-((5-Chloro-2-fluorobenzyl)thio)-1-(4-fluorophenyl)-N-methyl-N-(pyridin-4-ylmethyl)-1H-imidazole-5-carboxamide], the activation at 1.1 µM was 100%. As to `CN(Cc1ccncc1)C(=O)c1cnc(SCc2c(F)ccc(F)c2Cl)n1-c1ccc(F)cc1` [Compound 617, 2-((2-Chloro-3,6-difluorobenzyl)thio)-1-(4-fluorophenyl)-N-methyl-N-(pyridin-4-ylmethyl)-1H-imidazole-5-carboxamide], the activation at 1.1 µM was found to be 99%. On to `CN(Cc1ccncc1)C(=O)c1cnc(SCc2cc(F)c(F)cc2Cl)n1-c1ccc(F)cc1` [Compound 618, 2-((2-Chloro-4,5-difluorobenzyl)thio)-1-(4-fluorophenyl)-N-methyl-N-(pyridin-4-ylmethyl)-1H-imidazole-5-carboxamide], for which the activation at 1.1 µM came out at 94%. Consider `CN(Cc1ccncc1)C(=O)c1cnc(SCc2cc(F)cc(F)c2F)n1-c1ccc(F)cc1` [Compound 619, 1-(4-Fluorophenyl)-N-methyl-N-(pyridin-4-ylmethyl)-2-((2,3,5-trifluorobenzyl)thio)-1H-imidazole-5-carboxamide], for which the activation at 1.1 µM is 96%. On to `Cc1ccc(F)c(CSc2ncc(C(=O)N(C)Cc3ccncc3)n2-c2ccc(F)cc2)c1Cl` [Compound 620, 2-((2-Chloro-6-fluoro-3-methylbenzyl)thio)-1-(4-fluorophenyl)-N-methyl-N-(pyridin-4-ylmethyl)-1H-imidazole-5-carboxamide], for which the activation at 1.1 µM was 99%.

For `CN(Cc1ccncc1)C(=O)c1cnc(SCc2cccc(C(F)(F)F)c2)n1-c1ccc(F)cc1` [Compound 621, 1-(4-Fluorophenyl)-N-methyl-N-(pyridin-4-ylmethyl)-2-((3-(trifluoromethyl)benzyl)thio)-1H-imidazole-5-carboxamide], the activation at 1.1 µM is 98%. As for `Cc1ccc(Cl)c(CSc2ncc(C(=O)N(C)Cc3ccncc3)n2-c2ccc(F)cc2)c1F` [Compound 622, 2-((6-Chloro-2-fluoro-3-methylbenzyl)thio)-1-(4-fluorophenyl)-N-methyl-N-(pyridin-4-ylmethyl)-1H-imidazole-5-carboxamide], the activation at 1.1 µM turned out to be 100%. For the compound `CCN(Cc1ccncc1)C(=O)c1cnc(SCc2c(Cl)ccc(OC)c2F)n1-c1ccc(F)cc1` [Compound 626, 2-((6-Chloro-2-fluoro-3-methoxybenzyl)thio)-N-ethyl-1-(4-fluorophenyl)-N-(pyridin-4-ylmethyl)-1H-imidazole-5-carboxamide], the activation at 1.1 µM is 100%.

Consider `CCN(Cc1ccncc1)C(=O)c1cnc(SCc2c(Cl)ccc(C)c2F)n1-c1ccc(F)cc1` [Compound 627, 2-((6-Chloro-2-fluoro-3-methylbenzyl)thio)-N-ethyl-1-(4-fluorophenyl)-N-(pyridin-4-ylmethyl)-1H-imidazole-5-carboxamide], for which the activation at 1.1 µM stood at 100%.

`Cc1nn(C)cc1CN(C)C(=O)c1cnc(SCc2nc3ccccc3o2)n1-c1ccc(F)cc1` [Compound 629, 2-((Benzo[d]oxazol-2-ylmethyl)thio)-N-((1,3-dimethyl-1H-pyrazol-4-yl)methyl)-1-(4-fluorophenyl)-N-methyl-1H-imidazole-5-carboxamide]: the activation at 1.1 µM stood at 100%.

In the case of `CCc1noc(CSc2ncc(C(=O)N(C)Cc3cn(C)nc3C)n2-c2ccc(F)cc2)n1` [Compound 630, N-((1,3-Dimethyl-1H-pyrazol-4-yl)methyl)-2-(((3-ethyl-1,2,4-oxadiazol-5-yl)methyl)thio)-1-(4-fluorophenyl)-N-methyl-1H-imidazole-5-carboxamide], the activation at 1.1 µM turned out to be 98%.

Take `Cc1nn(C)cc1CN(C)C(=O)c1cnc(SCc2cc(C(C)C)no2)n1-c1ccc(F)cc1` [Compound 631, N-((1,3-Dimethyl-1H-pyrazol-4-yl)methyl)-1-(4-fluorophenyl)-2-(((3-isopropylisoxazol-5-yl)methyl)thio)-N-methyl-1H-imidazole-5-carboxamide]: the activation at 1.1 µM was found to be 97%.

Take `Cc1nn(C)cc1CN(C)C(=O)c1cnc(SCc2cc3ccccn3n2)n1-c1ccc(F)cc1` [Compound 632, N-((1,3-Dimethyl-1H-pyrazol-4-yl)methyl)-1-(4-fluorophenyl)-N-methyl-2-((pyrazolo[1,5-a]pyridin-2-ylmethyl)thio)-1H-imidazole-5-carboxamide]: the activation at 1.1 µM was found to be 100%. For the compound `Cc1nn(C)cc1CN(C)C(=O)c1cnc(SCc2ccn(C)n2)n1-c1ccc(F)cc1` [Compound 633, N-((1,3-Dimethyl-1H-pyrazol-4-yl)methyl)-1-(4-fluorophenyl)-N-methyl-2-(((1-methyl-1H-pyrazol-3-yl)methyl)thio)-1H-imidazole-5-carboxamide], the activation at 1.1 µM turned out to be 93%. Still for that read-out and setting: the result for `Cc1nn(C)cc1CN(C)C(=O)c1cnc(SCc2ncn(C)n2)n1-c1ccc(F)cc1` [Compound 634, N-((1,3-Dimethyl-1H-pyrazol-4-yl)methyl)-1-(4-fluorophenyl)-N-methyl-2-(((1-methyl-1H-1,2,4-triazol-3-yl)methyl)thio)-1H-imidazole-5-carboxamide] reads 91%.

Regarding `Cc1nn(C)cc1CN(C)C(=O)c1cnc(SCc2ncccn2)n1-c1ccc(F)cc1` [Compound 635, N-((1,3-Dimethyl-1H-pyrazol-4-yl)methyl)-1-(4-fluorophenyl)-N-methyl-2-((pyrimidin-2-ylmethyl)thio)-1H-imidazole-5-carboxamide], the activation at 1.1 µM amounted to 98%. As for `Cc1csc(CSc2ncc(C(=O)N(C)Cc3cn(C)nc3C)n2-c2ccc(F)cc2)n1` [Compound 636, N-((1,3-Dimethyl-1H-pyrazol-4-yl)methyl)-1-(4-fluorophenyl)-N-methyl-2-(((4-methylthiazol-2-yl)methyl)thio)-1H-imidazole-5-carboxamide], the activation at 1.1 µM turned out to be 98%. Regarding `CCOC(=O)CSc1ncc(C(=O)N(C)Cc2cn(C)nc2C)n1-c1ccc(F)cc1` [Compound 637, Ethyl 2-((5-(((1,3-dimethyl-1H-pyrazol-4-yl)methyl)(methyl)carbamoyl)-1-(4-fluorophenyl)-1H-imidazol-2-yl)thio)acetate], the activation at 1.1 µM is 94%.

Tested on in another test: not listed separately
As to the kind of experiment: Oral glucose tolerance test in C57BL/6N mice. The test is classed as in vivo. The following applies: 100 mg/kg oral, 3 g/kg glucose, percent reduction in glucose excursion (AUC 0-120 min) vs. control animals. How it is done:
Male mice (8-10 week old C57BL/6N, Harlan Laboratories, Inc.) were maintained on 18% Protein Rodent diet (Teklad Global Diets, Harlan Laboratories, Inc). Overnight fasted mice were randomized into groups (n=8-10) to receive the test compounds at a dose of 100 mg/kg or the vehicle (1% CMC, 2% TWEEN 80). Compounds were delivered orally via gavage. Blood glucose levels were measured by glucometer before administration of compounds and at 30 minutes post compound. The mice were then dosed orally with 3 g/kg glucose. Blood glucose measurements were taken 20, 40, 60, 90 and 120 minutes after glucose administration. Glucose levels were plotted against time and the incremental area under the curve (AUC) of the glucose excursion was determined from T=0 to T=120 min.
(§1) Oral glucose tolerance is expressed as a percent reduction in glucose excursion of animals receiving test compound vs. control animals. Incretin activity (i.e. incretin secretion) is expressed as an x-fold increase in GLP-1 production in animals receiving test compound vs. control animals.
As for `Cc1cnccc1CN(C)C(=O)c1cnc(SCc2c(F)ccc(F)c2F)n1-c1ccc(F)cc1` [Compound 502, 1-(4-Fluorophenyl)-N-methyl-N-((3-methylpyridin-4-yl)methyl)-2-((2,3,6-trifluorobenzyl)thio)-1H-imidazole-5-carboxamide], the “Glucose Reduction (%)” value came out at 27.7%.

In a further test the test system is Glucagon-like peptide-1 (GLP-1). Kind of test: Total GLP-1 secretion at end of oral glucose tolerance test. It counts as in vivo. The following applies: C57/6N mice, 100 mg/kg oral; total GLP-1 at end of OGTT vs. control animals. How it is done:
The effect of test compounds on the secretion of Glucagon-like peptide-1 (GLP-1) in C57/6N mice was determined at the end of the oral glucose tolerance test. Animals were anesthetized with pentobarbital and blood collected by heart puncture in potassium EDTA-coated microtainer tubes containing 10 μl/ml DPP-IV inhibitor and 500 KIU/ml Aprotinin. Total GLP-1 was measured using Mouse/Rat Total Glucagon-like peptide-1 assay kit (Meso Scale Discovery) and MSD SECTOR2400 Imager according to the manufacturer's instructions.
as §1
In the case of `Cc1cnccc1CN(C)C(=O)c1cnc(SCc2c(F)ccc(F)c2F)n1-c1ccc(F)cc1` [Compound 502, 1-(4-Fluorophenyl)-N-methyl-N-((3-methylpyridin-4-yl)methyl)-2-((2,3,6-trifluorobenzyl)thio)-1H-imidazole-5-carboxamide], the “Increase in GLP-1 (Fold)” value is 2.2 Fold.
